Entries after “also recorded” stand apart in the source; their conditions may differ. Where two headings read alike, the source gives them in different places.
Legend:
patients with MG = assay: Phase 1 FIH study: safety in patients with MG; type: in vivo, human
Protocol: (§1) 12 patients were enrolled and completed the study. For each subject, the study consisted of three study periods during which subjects received either a single dose of NMD670 400 mg, NMD670 1200 mg, or placebo with a 7-day washout period between visits. On these study visits, subjects were asked to refrain from their regular dose of pyridostigmine (if applicable) from 14 h before dosing until after the last pharmacodynamic measurement on Day 1 (see Table 13: Visit and Assessment Schedule). The cross-over design allowed intra-individual comparison of drug effects versus placebo (see FIG. 16). A balanced design was applied to control for first-order carry-over effects.
(§2) Part C was a double-blinded, placebo-controlled, three-way cross-over comparison of two single oral doses of NMD670 in men and women with stable symptomatic myasthenia gravis. 12 patients were enrolled. For each subject, the study consisted of three study periods during which subjects received either a single dose of NMD670 or placebo. On these study visits, subjects were asked to refrain from their regular dose of pyridostigmine (if applicable) for 14 hours before dosing. Single doses were administered in randomized order (400 mg free acid, 1200 mg free acid, or placebo p.o.), with a 7-day washout period between visits (FIG. 16). NMD670/placebo was administered with 240 ml of still water.

EAMG rats = assay: Force and EMG in sedated EAMG animals (triceps surae, sciatic nerve stimulation); type: in vivo, rat
[1] = tested on: muscle fibres from EAMG rats; assay: Endplate potentials (EPP) in isolated nerve-muscle preparations; type: cell-based, rat; conditions: 20 μM NMD670
Text: To allow for measurements of electrophysiological properties at the cellular level and for measurements of force, it was necessary to isolate nerve-muscle preparations from the rats. To this end, animals were sacrificed, and muscles were dissected out with 1 to 3 cm of intact nerve. The nerve-muscle preparations were then transferred to the organ baths used for the particular experiments (see below) and perfused with Normal Krebs-Ringer (NKR) solution, consisting of (in mM); 122 NaCl, 25 NaHCO3, 2.8 KCl, 1.2 KH2PO4, 1.2 MgSO4 1.27 CaCl2 and 5 D-glucose. This NKR solution was continuously gassed with a mixture of 95% oxygen and 5% CO2, to maintain a pH of approx. 7.4. In some experiments methyl-sulphate was used to replace Cl^− in the solution. All chemicals used were of analytical grade.
The effect of CIC-1 inhibition on neuromuscular transmission was investigated at the cellular level by recording endplate potentials (EPPs) with intracellular electrodes in isolated nerve-muscle preparations from healthy and EAMG rats (score 0-2). Muscle preparations used in the experiments were diaphragm or levator longus auris (LAL) providing the advantage to dissect out 1-3 cm of intact motor nerve. After dissection, preparations were immediately mounted in a chamber perfused with NKR at a temperature of 30-31° C., pH 7.4-7.5. […]

healthy subjects = assay: Phase I clinical trial Part A: tolerability/safety of single doses
Text: Part A1 tested single doses of NMD670 in a double-blind, randomised, placebo-controlled, partial crossover and dose-escalating design in healthy male subjects (see the WHO International Clinicals Trials Registry Platform study reference NL8692). A total of nine dose levels were investigated in three cohorts of subjects. Each cohort consisted of nine subjects, each subject had three study sessions. Each subject received escalating doses of NMD670 on two occasions and placebo on one occasion, the order will be randomized in a cross-over fashion. Each dose level was randomized in a 6:3 ratio (active vs. placebo).
Therefore, for the remaining 2 doses, a full cross-over design investigating one previously tested dose level was used. […] To determine the effect of food on the exposure of single oral doses of NMD670, dose level 5 was administered in both the fasted and fed condition. Subjects who received dose level 5 returned for a fourth visit in which they received dose level 5 (or matching placebo) in the fed condition, in the same randomization as the chosen dose level in the fasted condition.
Part A2 of the study investigated the safety, tolerability and pharmacokinetics of NMD670 in 8 healthy female subjects of non-childbearing potential, in a randomized, double-blind, placebo-controlled single dose administration of NMD670. Subjects received 800 mg NMD670. Subjects were randomized in a 6:2 ratio (active vs. placebo).
The following endpoints were determined at time points indicated in the Schedule of Assessments. • Serious adverse events (SAEs) and adverse events (AEs) were collected throughout the study at every study visit. • Concomitant medication • Clinical laboratory tests • Haematology • Chemistry • Urinalysis • Coagulation • Vital signs • Pulse Rate (bpm) • Systolic blood pressure (mmHg) • Diastolic blood pressure (mmHg) • Respiratory rate • ECG • Heart Rate (HR) (bpm), PR, QRS, QT, QTcF • 24-hour Holter recording • Hand grip dynamometry • Grip release profile; time profile from 100% maximum voluntary contraction (MVC) to 5% of the 100% MVC

[2] = Phase I clinical trial Part A: pharmacokinetics; type: in vivo; conditions: human; for Cmax / half-life / AUC(0-inf): plasma; for AUC(0-inf): read-out: AUC0-infinity (Mean ± SD, h · ng/mL)
[3] = Phase IIA clinical trial (Part C): pharmacokinetics in patients; type: in vivo; conditions: both sexes, human, plasma; for AUC(0-inf): read-out: AUC0-infinity (Mean ± SD, h · ng/mL); for Cmax: read-out: Cmax (Mean ± SD, ng/mL); for half-life: read-out: T1/2 (median, hr) (converted); for Tmax: read-out: Tmax (median, hr)
Protocol: • Collect blood (3 mL recommended) onto wet ice (K2EDTA tubes) • Immediately cool blood on crushed wet ice for maximum of 30 minutes • Harvest plasma as quickly as possible using refrigerated centrifuge by centrifuging at 2000 g for 10 minutes at 4° C. • Keep plasma on wet ice and immediately stabilise with 1:1 (v/v) addition of Water: Orthophosphoric Acid (100:2 v/v) prepared using ≥85% orthophosphoric acid and deionised water (e.g. 750 μL plasma+750 μL stabiliser). • Mix sample thoroughly. • Keep the stabilised plasma on wet ice during subsequent steps. • Divide the stabilised plasma into 5×250 μL aliquots in plastic cryotubes. • Store aliquots at nominal −70° C./−80° C. promptly.
• 1. Thaw frozen calibration standards, QC samples, blank matrix and study samples on wet ice. • 2. Vortex-mix all samples thoroughly. • 3. On wet ice aliquot 150 μL of calibration standards, QC samples, study samples, and blanks into a 2 mL 96-well plate. For the reagent blank add the same volume of Water. • 4. On wet ice add 25 μL of Methanol:Water (50:50) to wells containing blanks and the same volume of ISTD intermediate solution to all other wells. • 5. On wet ice add 125 μL of Water to each well. Cap plate and vortex-mix (˜5 minutes, 1000 rpm). • 6. Centrifuge plate (˜3000 g, 3 minutes, room temperature). • 7. Condition SPE plate (Waters Oasis HLB pElution) with 250 μL Methanol. • 8. Condition SPE plate with 250 μL of Water. • 9. Load 250 μL of the sample onto the SPE plate (aspirate from the rim of the cone to avoid any debris collected at the bottom of the well). Pass through using minimum pressure. • 10. Wash SPE plate with 250 μL of Water. • 11. Wash SPE plate with 250 μL of Methanol:Water (5:95). Briefly increase pressure for one minute to ensure sorbent is partially dried. • 12. Elute from SPE plate into a 1.2 mL 96-well plate using 30 μL of Methanol. Stand for one minute then pass through using absolute minimum pressure. • 13. Elute again with another 30 μL of Methanol, collecting into the same plate. Briefly increase pressure for one minute to complete the elution. • 14. Add 125 μL of Ammonium Formate 10 mM (aq):Formic Acid (100:0.3) to each well. Cap plate and vortex mix (˜1 minute, ≥1200 rpm). • 15. Store plate refrigerated prior to analysis.
as §1, with “For” for “12 patients were enrolled and completed the study. For”
as §2

[4] = of a total of 70 AEs, Part A healthy subjects
[5] = male, po, 1600 mg, 1600 mg single oral dose, healthy male subjects, SD not given

For C[C@H](Oc1ccc(Br)cc1-c1ccon1)C(=O)O [NMD670, (2S)-2-[4-bromo-2-(1,2-oxazol-3-yl)phenoxy]propanoic acid], the “Treatment-related adverse effects in MG patients” value (patients with MG; 1200 mg doses) was “no treatment-related adverse effects”, the “Myotonia in patients with MG” value (patients with MG; single doses up to 1200 mg) was “not observed” and the “Nerve-stimulated force and EMG amplitude in triceps surae” value (EAMG rats; EAMG rat score 2, 40 mg per kg, 20 minutes after administration, 80 Hz for 1 second) was “rapid restoration of force and EMG amplitude”. For the same compound, the “Restoration of muscle force / EMG” value (EAMG rats; EAMG rats, single per oral doses from 2 to 120 mg/kg) was “rapid and dose-dependent restoration of muscle force; also recorded: rapid and dose-dependent restoration of both EMG and force”, the “Endplate potential (EPP) in muscle fibres from EAMG rats vs healthy rats” value [1] was “could be restored” and the “Increase of endplate potential (EPP) amplitude” value ([1]; EAMG rats, throughout a 12 Hz train of 30 stimulations, 82 fibres vs 68 fibres without inhibitor) was “more than 35%”. For the same compound, the “Healthy subjects with myotonic symptoms” value (healthy subjects; 1200 mg QD, mild in intensity, resolved spontaneously within a few hours) was 2 healthy subjects, the “AE with dose relationship, reported at the highest dose levels tested” value (healthy subjects; 1200 mg and 1600 mg single dose, healthy subjects) was “transient myotonia” and the Subject discontinuations (healthy subjects; Part A healthy subjects) was “no subject discontinuations”. For the same compound, the “Total number of AEs reported” value (healthy subjects; Part A, 35 healthy subjects, single-ascending dose study) was 70 AEs, the Serum uric acid (healthy subjects; Phase 1 clinical study, considered non-clinically significant) was “dose-dependent decrease in serum uric acid” and the “Intensity of most AEs” value (healthy subjects; Phase 1 healthy subjects) was “mild and mild in intensity”. The Maximum tolerated dose (healthy subjects; healthy subjects, based on myotonia) was 1200 mg QD, the “AEs at least possibly drug-related (number)” value (healthy subjects; [4]) was 47 AEs and the “AEs at least possibly drug-related (proportion)” value (healthy subjects; [4]) was 67%. The “Myotonia at 1600 mg (intensity)” value (healthy subjects; one healthy subject, single dose 1600 mg, spontaneously and fully resolved within hours, dose escalation stopped) was “myotonia of moderate intensity; also recorded: moderate in intensity; also recorded: Myotonia of moderate severity”, the “Serious or severe adverse effects” value (healthy subjects; single doses 50-1600 mg, healthy subjects) was “No serious or severe adverse effects; also recorded: No serious adverse reactions were reported” and the “Relationship between increases in NMD670 dose and incidence of participants with AEs” value (healthy subjects; single doses, healthy subjects) was “no meaningful relationships”. For the same compound, the Cmax ([2]; female, po, 800 mg, 800 mg (female), single oral dose, read-out: Cmax (Mean ± SD, ng/mL)) was 44400 ± 7480 ng/mL, the “Accumulation between single and multiple dosing” value ([2]; phase 1 FIH study) was “no meaningful accumulation” and the half-life ([2]; oral, mostly eliminated in 24 hours, read-out: Half-life (converted)) was roughly 5 h. It also gave a Cmax ([2]; male, po, 50 mg, 50 mg single oral dose, healthy male subjects, read-out: Cmax (Mean ± SD, ng/mL)) of 1900 ± 580 ng/mL, an AUC(0-inf) ([2]; male, po, 100 mg, 100 mg single oral dose, healthy male subjects) of 18.5 ± 1.77 µg·h/mL and a Cmax ([2]; male, po, 100 mg, 100 mg single oral dose, healthy male subjects, read-out: Cmax (Mean ± SD, ng/mL)) of 3980 ± 1190 ng/mL. It also gave a half-life ([2]; male, po, 100 mg, 100 mg single oral dose, healthy male subjects, read-out: T1/2 (mean ± SD, hr) (converted)) of 5.07 ± 0.63 h, an AUC(0-inf) ([2]; male, po, 200 mg, 200 mg single oral dose, healthy male subjects) of 36.1 ± 5.03 µg·h/mL and a Cmax ([2]; male, po, 200 mg, 200 mg single oral dose, healthy male subjects, read-out: Cmax (Mean ± SD, ng/mL)) of 7780 ± 1130 ng/mL. The half-life ([2]; male, po, 200 mg, 200 mg single oral dose, healthy male subjects, read-out: T1/2 (mean ± SD, hr) (converted)) was 4.6 ± 0.67 h, the AUC(0-inf) ([2]; male, po, 400 mg, 400 mg single oral dose, healthy male subjects) was 87.7 ± 21.4 µg·h/mL and the Cmax ([2]; male, po, 400 mg, 400 mg single oral dose, healthy male subjects, read-out: Cmax (Mean ± SD, ng/mL)) was 20100 ± 7340 ng/mL. It also gave a half-life ([2]; male, po, 400 mg, 400 mg single oral dose, healthy male subjects, read-out: T1/2 (mean ± SD, hr) (converted)) of 4.68 ± 0.49 h, an AUC(0-inf) ([2]; male, po, 800 mg, 800 mg fasted (male), single oral dose) of 191 ± 31.5 µg·h/mL and a Cmax ([2]; male, po, 800 mg, 800 mg fasted (male), single oral dose, read-out: Cmax (Mean ± SD, ng/mL)) of 36700 ± 15400 ng/mL. The AUC(0-inf) ([2]; male, po, 800 mg, 800 mg fed (male), single oral dose) was 180 ± 27.9 µg·h/mL, the Cmax ([2]; male, po, 800 mg, 800 mg fed (male), single oral dose, read-out: Cmax (Mean ± SD, ng/mL)) was 37300 ± 7420 ng/mL and the AUC(0-inf) ([2]; male, po, 1200 mg, 1200 mg single oral dose, healthy male subjects) was 358 ± 176 µg·h/mL. It also gave a Cmax ([2]; male, po, 1200 mg, 1200 mg single oral dose, healthy male subjects, read-out: Cmax (Mean ± SD, ng/mL)) of 55000 ± 21700 ng/mL, a half-life ([2]; male, po, 1200 mg, 1200 mg single oral dose, healthy male subjects, read-out: T1/2 (mean ± SD, hr) (converted)) of 6.11 ± 1.28 h and a Cmax [2, 5] of 123000 ng/mL. It also gave an AUC(0-inf) [2, 5] of 826 µg·h/mL, a half-life ([2]; male, po, 1600 mg, 1600 mg single oral dose, healthy male subjects, SD not given, read-out: T1/2 (mean ± SD, hr) (converted)) of 4.48 h and an AUC(0-inf) ([3]; 400 mg single oral dose) of 93.7 µg·h/mL. It also gave a Cmax ([3]; 400 mg single oral dose) of 21700 ng/mL, a half-life ([3]; 400 mg single oral dose) of 5.43 h and a Tmax ([3]; 400 mg single oral dose) of 2 h. It also gave an AUC(0-inf) ([3]; 1200 mg single oral dose) of 378 µg·h/mL, a Cmax ([3]; 1200 mg single oral dose) of 76700 ng/mL and a half-life ([3]; 1200 mg single oral dose) of 5.06 h. It also gave a Tmax ([3]; 1200 mg single oral dose) of 2 h.

Reference: US20260102377A1, “COMPOSITIONS AND METHODS FOR TREATING MYASTHENIA GRAVIS” (priority 2022, published 2026)
